From US20260265329A1, “POLYPEPTIDE AND DERIVATIVE THEREOF, COMPOSITION, AND USE THEREOF” (HANGZHOU SCIWIND BIOSCIENCES CO., LTD., priority 2023, published 2026)
Starred links: 1 amine or outer side, 2 acyl side, 3 side chain; linkers in the order of their positions; H or OH if unused. Non-standard residues stand in square brackets, D forms with d. Residues, ends and D or L forms follow the SMILES beside them. *: point of attachment. C20 diacid = O=C(O)CCCCCCCCCCCCCCCCCCC(=O)*; γGlu = O=C(O)[C@H](CCC(=O)[*:2])N[*:1]; Hyp = O=C(O)[C@@H]1C[C@@H](O)CN1

What was measured:
human amylin receptors = molecular target: T1, human amylin receptors (Homo sapiens, UniProt O60896+P30988); assay: Luciferase assay in stably transfected amylin receptor/CRE-luc CHO cell line; assay type: cell-based; details: for Relative activity: EC50 ratio of Cagrilintide to the compound, Cagrilintide 100%; for EC50: amylin receptor/CRE-luc CHO cells, 24 hours incubation, luminescence
T1 construct: host or cells: CHO-K1/Ga15/AMY3 cells, further stably transfected with a CRE-luciferase plasmid
T1 sequence (P30988 25-474): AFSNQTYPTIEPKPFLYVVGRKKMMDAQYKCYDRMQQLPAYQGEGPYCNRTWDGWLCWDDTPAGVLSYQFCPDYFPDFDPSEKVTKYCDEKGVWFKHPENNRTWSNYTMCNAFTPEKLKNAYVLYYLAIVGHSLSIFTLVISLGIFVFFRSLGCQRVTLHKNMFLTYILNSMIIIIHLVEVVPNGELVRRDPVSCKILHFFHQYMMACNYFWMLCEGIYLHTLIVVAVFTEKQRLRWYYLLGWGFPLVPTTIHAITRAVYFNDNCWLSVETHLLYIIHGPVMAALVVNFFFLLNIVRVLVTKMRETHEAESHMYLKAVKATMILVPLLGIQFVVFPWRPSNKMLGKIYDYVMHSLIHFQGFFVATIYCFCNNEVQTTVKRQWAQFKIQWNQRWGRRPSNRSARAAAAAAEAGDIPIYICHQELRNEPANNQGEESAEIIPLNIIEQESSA
T1 sequence (O60896 24-148 partner): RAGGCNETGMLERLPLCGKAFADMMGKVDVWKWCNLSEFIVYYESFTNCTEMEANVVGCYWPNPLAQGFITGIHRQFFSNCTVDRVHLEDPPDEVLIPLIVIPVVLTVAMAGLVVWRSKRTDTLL

[1] = Heat accelerated stability assay, 40° C., detection on 10 d and 20 d; assay type: physicochemical; details: 1 mg/mL, pH about 7.4, 40° C.
Method: The derivatives (1 mg/mL) were mixed with sodium dihydrogen phosphate (1.42 mg/mL) and dissolved in ultrapure water. After adjusting pH to about 7.4 with hydrochloric acid/sodium hydroxide, the solution was filtered into a sterilized vial in a clean bench using a 0.22 μm sterile filter. The vial was then capped and placed into the stability test chamber at 40° C. Detections were made on 10d and 20d, and during the assay changes in the characteristics and properties of the polypeptides were observed and recorded. The sample was then centrifuged for 3 min at 10000 rpm at 4° C., and the supernatant was transferred to a liquid phase sample vial for detecting the concentration and purity of the polypeptides using liquid phase chromatography described as below.
Flow rate: 1.0 mL/min; Autosampler temperature: 25° C.; Column temperature: 25° C.; Detection wavelength: 214 nm; Mobile phase A: 110 mM phosphate buffer (pH 5.8): ACN=90:10; Mobile phase B: ACN: IPA: H2O=85:5:10; and Gradient of elution listed in Table 6: […]

[2] = Efficacy assay in SD rats, dose-dependent study (Example 5); assay type: in vivo
Method: SPF male SD rats (7-8 weeks, 220-230 g) were employed in this study after health inspection and quarantine. The experimental animals were exposed to a room temperature of 20° C.-23° C. and a relative humidity of 40%-50%, and were provided with Co60 mouse reproduction feed 1035 and purified water supplied with water feeding bottles for free intake throughout the health inspection and quarantine and the study. […] Using a single dose administered via subcutaneous injection, the study lasted for a total of 6 days with the day of administration designated as Day 1/Time 0 (TO), wherein on Day 0, the initial body weight of the animals were recorded and the initial feed was added, and on Day 1-Day 5, the body weight of the studied animals as well as the remaining food were recorded daily for calculating the percentage of weight change and the amount of food intake, any anomalies during which were required to be recorded and reported. During the study, the rats were in good condition and no anomaly was observed. Weight change=(BWTn−BWT0)/BWT0* 100%, wherein BW represented the value of body weight, and T0 and Tn represented the time points of dosing and n hours post dose respectively. Dots in the figures were represented utilizing mean±standard error of the mean (SEM). Accumulated food intake was the total amount of food intake for each of the animals prior to a certain time point post dose.

[3] = Efficacy assay in DIO SD rats, dose-dependent study (Example 6); assay type: in vivo
Method: SPF male DIO SD rats (36-37 weeks, […], fed with high-fat diet for 34 weeks from 3-week age on) were employed in this study. The experimental animals were exposed to a room temperature of 20° C.-23° C. and a relative humidity of 40%-50%, and were provided with high-fat diet D12492 and purified water supplied with water feeding bottles for free intake throughout the construction of the DIO animal model and the study. Based on their mean body weight, the animals were assigned to 6 groups designated as B1-B6 (n=5). Administration via subcutaneous injection was conducted once a day for 10 continuous days, wherein the first day of administration was designated as Day 1 (D1), and on Day 0, the initial body weight of the animals were recorded and the initial feed was added, and on Day 1-Day 11, the body weight of the studied animals as well as the remaining food were recorded daily for calculating the percentage of weight change and the amount of food intake, any anomalies during which were required to be recorded and reported. During the study, the rats were in good condition and no anomaly was observed. Weight change=(BWDn−BWD1)/BWD1*100%, wherein BW represented the value of body weight, and D1 and Dn represented the first and Nth days of administration respectively. Dots in the figures were represented utilizing mean±standard error of the mean (SEM). Accumulated food intake was the total amount of food intake for animals of each group prior to a certain time point post dose.

in vivo = assay: in vivo; design: species or system SD rats; details: rat, sc, 1 mg/kg
Method: The animals received a subcutaneous injection of corresponding compounds for testing (1 mg/kg and 5 ml/kg), and the day of administration was designated as D1. The whole blood of the animals was collected pre dose (-10 min) on D1 and post dose at D1-2h, D1-4h, D1-6h, D2-24h, D3-48h, D4-72h, D5-96h, and D6-120 h and was processed into plasma (using EDTA for anticoagulation). Liquid chromatography-tandem mass spectrometry (LC-MS/MS) was used to detect the concentration of drug molecules in the plasma, and GraphPad Prism 10 was utilized to plot a concentration-time curve for the drugs whose pharmacokinetic parameters including Cmax, Tmax, T1/2, AUC, and MRT were then calculated with PKSolver.

[4] = Heat accelerated stability assay, 40° C., detection on 7 d and 28 d; assay type: physicochemical
How it was run: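 Derivatives at 1 mg/mL in water with sodium dihydrogen phosphate (1.42 mg/mL), pH about 7.4, sterile-filtered, stored sealed at 40° C. On days 7 and 28, appearance noted; after centrifugation, supernatant concentration and purity measured by reversed-phase HPLC at 214 nm (water/0.05% TFA–acetonitrile gradient).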

[5] = single subcutaneous dose 10, 30, 100 nmol/kg (FIGS. 3A-3D)
[6] = subcutaneous once a day for 10 days, 3 and 10 nmol/kg (FIGS. 4A, 4B)

Question: Which results are given for `CC[C@H](C)[C@H](NC(=O)[C@@H]1CCCN1C(=O)[C@H](CCCCN)NC(=O)[C@H](CC(C)C)NC(=O)[C@H](CO)NC(=O)[C@H](CO)NC(=O)[C@H](CO)NC(=O)[C@H](CO)NC(=O)[C@H](Cc1c[nH]cn1)NC(=O)[C@H](CCCNC(=N)N)NC(=O)[C@H](CC(C)C)NC(=O)[C@H](Cc1ccccc1)NC(=O)[C@H](CC(=O)O)NC(=O)[C@H](C)NC(=O)[C@H](CC(C)C)NC(=O)[C@H](CCCNC(=N)N)NC(=O)[C@H](CCC(N)=O)NC(=O)[C@@H](NC(=O)[C@H](C)NC(=O)[C@H](C)NC(=O)[C@@H](NC(=O)[C@H](CO)NC(=O)[C@H](CC(C)C)NC(=O)[C@H](CCC(N)=O)NC(=O)[C@H](CO)NC(=O)[C@H](C)NC(=O)CC[C@H](NC(=O)CCCCCCCCCCCCCCCCCCC(=O)O)C(=O)O)[C@@H](C)O)[C@@H](C)O)C(=O)N[C@@H](CC(C)C)C(=O)N1CCC[C@H]1C(=O)N1CCC[C@H]1C(=O)N[C@H](C(=O)N[C@@H](CC(N)=O)C(=O)N[C@H](C(=O)NCC(=O)N[C@@H](CO)C(=O)N[C@@H](CC(N)=O)C(=O)N[C@H](C(=O)N1C[C@H](O)C[C@H]1C(N)=O)[C@@H](C)O)C(C)C)[C@@H](C)O` [M43] ({C20 diacid-γGlu}-ASQLSTAATQRLADFLRHSSSSLKPILPPTNVGSNT[Hyp]-NH2)?
Answer: Relative activity (human amylin receptors): 180%; EC50 (human amylin receptors): 0.05 nM; Reduction in purity, 10 d [1]: 3.6%; Reduction in purity, 20 d [1]: 6.6%; Body weight and food intake reduction compared with Cagrilintide ([2]; equivalent dosage): performed better than Cagrilintide at the equivalent dosage; Effect on body weight [2, 5]: dose-dependently reduced; Effect on food intake [2, 5]: dose-dependently reduced; Body weight and food intake reduction compared with Cagrilintide ([3]; equivalent dosage): performed better than Cagrilintide at the equivalent dosage; Effect on body weight [3, 6]: dose-dependently reduced; Effect on food intake [3, 6]: dose-dependently reduced; AUC(0-inf) (in vivo; male, SD): 217 µg·h/mL; AUC(0-t) (in vivo; male, SD): 214 µg·h/mL; Cmax (in vivo; male, SD): 4930 ng/mL; MRT inf (in vivo; male, SD): 39 h; Tmax (in vivo; male, SD): 24 h; half-life (in vivo; male, SD): 21.3 h

Question: With `CC[C@H](C)[C@H](NC(=O)[C@@H]1CCCN1C(=O)CNC(=O)[C@H](Cc1ccccc1)NC(=O)[C@H](CC(N)=O)NC(=O)[C@H](CC(N)=O)NC(=O)[C@H](CO)NC(=O)[C@H](CO)NC(=O)[C@H](Cc1c[nH]cn1)NC(=O)[C@H](CCCNC(=N)N)NC(=O)[C@H](CC(C)C)NC(=O)[C@H](Cc1ccccc1)NC(=O)[C@H](CCC(=O)O)NC(=O)[C@H](C)NC(=O)[C@H](CC(C)C)NC(=O)[C@H](CCCNC(=N)N)NC(=O)[C@H](CCC(N)=O)NC(=O)[C@@H](NC(=O)[C@H](C)NC(=O)[C@@H]1CSSC[C@H](NC(=O)[C@H](CCCCN)NC(=O)CC[C@H](NC(=O)CCCCCCCCCCCCCCCCCCC(=O)O)C(=O)O)C(=O)N[C@@H](CC(N)=O)C(=O)N[C@@H]([C@@H](C)O)C(=O)N[C@@H](C)C(=O)N[C@@H]([C@@H](C)O)C(=O)N1)[C@@H](C)O)C(=O)N[C@@H](CC(C)C)C(=O)N1CCC[C@H]1C(=O)N1CCC[C@H]1C(=O)N[C@H](C(=O)N[C@@H](CC(N)=O)C(=O)N[C@H](C(=O)NCC(=O)N[C@@H](CO)C(=O)N[C@@H](CC(N)=O)C(=O)N[C@H](C(=O)N1CCC[C@H]1C(N)=O)[C@@H](C)O)C(C)C)[C@@H](C)O` [Cagrilintide, reference compound] as the compound, how does the Relative activity (human amylin receptors) read?
Answer: Its Relative activity is 100%.

Question: And the “Purity from the reversed phase chromatography-214 nm, 0 d” value ([4]; 1 mg/mL, pH about 7.4, 40° C., 0 d)?
Answer: Its value is 90.04.

Question: What about the “Purity from the reversed phase chromatography-214 nm, 7 d” value ([4]; 1 mg/mL, pH about 7.4, 40° C., 7 d) of the same compound?
Answer: The value was 82.03.

Question: And the “Purity from the reversed phase chromatography-214 nm, 28 d” value ([4]; 1 mg/mL, pH about 7.4, 40° C., 28 d)?
Answer: The value was 73.89.

Question: And the “Change (7 d − 0 d)” value ([4]; purity on 7 d − purity on 0 d, 40° C., pH about 7.4)?
Answer: Its value is −8.01.

Question: What about the “Change (28 d − 0 d)” value ([4]; purity on 28 d − purity on 0 d, 40° C., pH about 7.4) of the same compound?
Answer: Its value is −16.15.

Question: What about the “Reduction in purity, 10 d” value [1] of the same compound?
Answer: Its value is 44.83%.

Question: What about the AUC(0-inf) (in vivo) of the same compound?
Answer: The AUC(0-inf) was 177 µg·h/mL.

Question: What about the AUC(0-t) (in vivo) of the same compound?
Answer: Its AUC(0-t) is 173 µg·h/mL.

Question: What about the Cmax (in vivo) of the same compound?
Answer: Its Cmax is 3270 ng/mL.

Question: What about the MRT inf (in vivo) of the same compound?
Answer: The MRT inf was 43.4 h.

Question: What about the Tmax (in vivo) of the same compound?
Answer: The Tmax was 24 h.

Question: What about the half-life (in vivo) of the same compound?
Answer: The half-life was 24.7 h.

Question: What does the source list for `CC[C@H](C)[C@H](NC(=O)[C@@H]1CCCN1C(=O)[C@H](CCCCN)NC(=O)[C@H](CC(C)C)NC(=O)[C@H](CC(N)=O)NC(=O)[C@H](Cc1c[nH]cn1)NC(=O)[C@H](CO)NC(=O)[C@H](CO)NC(=O)[C@H](Cc1c[nH]cn1)NC(=O)[C@H](CCCNC(=N)N)NC(=O)[C@H](CC(C)C)NC(=O)[C@H](Cc1ccccc1)NC(=O)[C@H](CC(=O)O)NC(=O)[C@H](C)NC(=O)[C@H](CC(C)C)NC(=O)[C@H](CCCNC(=N)N)NC(=O)[C@H](CCC(N)=O)NC(=O)[C@@H](NC(=O)[C@H](C)NC(=O)[C@H](C)NC(=O)[C@@H](NC(=O)[C@H](CO)NC(=O)[C@H](CC(C)C)NC(=O)[C@H](CCC(N)=O)NC(=O)[C@H](CO)NC(=O)[C@H](C)NC(=O)CC[C@H](NC(=O)CCCCCCCCCCCCCCCCCCC(=O)O)C(=O)O)[C@@H](C)O)[C@@H](C)O)C(=O)N[C@@H](CC(C)C)C(=O)N1CCC[C@H]1C(=O)N1CCC[C@H]1C(=O)N[C@H](C(=O)N[C@@H](CC(N)=O)C(=O)N[C@H](C(=O)NCC(=O)N[C@@H](CO)C(=O)N[C@@H](CC(N)=O)C(=O)N[C@H](C(=O)N1C[C@H](O)C[C@H]1C(N)=O)[C@@H](C)O)C(C)C)[C@@H](C)O` [M52] ({C20 diacid-γGlu}-ASQLSTAATQRLADFLRHSSHNLKPILPPTNVGSNT[Hyp]-NH2)?
Answer: Relative activity (human amylin receptors): 178%; EC50 (human amylin receptors): 0.09 nM; Reduction in purity, 10 d [1]: 7.91%; Reduction in purity, 20 d [1]: 15.42%
